Experimental data as given in a melting point compilation (Tetko et al.; mined from patent text by program, amines drawn as free bases though some values may be those of a salt).

| SMILES | melting point |
| --- | --- |
| CC(C)N(CCC(C(N)=O)(c1ccc(O)cc1)c1ccccn1)C(C)C (stereo unspecified) | 148 to 151 °C |
| CN(C)S(=O)(=O)c1ccc(O)c(O)c1 | 142 °C |
| CC(C)c1cc(C(C)C)c2nc[nH]c(=O)c2c1 | 164 to 165 °C |
| COc1c(OCCCCCC(=O)N(CCO)C2CCCCC2)ccc2c1CN1CC(=O)NC1=N2 | 208 to 209 °C |
| Cc1nnc2ncc(-c3ccccc3F)nn12 | 200 to 204 °C |
| O[C@@H]1CNCC[C@H]1NCc1ccccc1 (relative stereo) | 136 °C |
| CC(C)C(=O)c1cccc(S(N)(=O)=O)c1 | 170 to 171 °C |
| CCCCc1nc2c(N)nc3cccnc3c2n1CCCOC(C)C | 174 to 175 °C |
| N#Cc1ccc2cc(C(N)=O)[nH]c2c1 | 241 to 242 °C |
| CCC(=O)Nc1onc2c1c(=O)n(C)c(=O)n2C | 150 to 152 °C |
| COCCOCOc1ccc(-c2nnc(S)o2)cc1OCOCCOC | 84 °C |
| CC(=O)S[C@H]1NC(=O)[C@H]1NC(=O)Cc1ccccc1 | 110 to 111 °C |
| CCCCCCCCCCCCCCC[C@H]1O[C@@H]1CO | 77 to 78 °C |
| OCc1ccc2cccc(Br)c2c1 | 110 to 111 °C |
| Cn1c([N+](=O)[O-])cnc1C(N)=S | 148 to 150 °C |
| CCCCOc1ccc2[nH]c(C(=O)O)cc2c1 | 153 °C |
| COc1cccc(Cc2snnc2-c2ccco2)c1 | 80.6 to 82 °C |
| O=C(O)C1(c2ccc(CN3CCN(c4ccc(F)cc4F)CC3)cc2)CC1 | 70 to 74 °C |
| CC1(C)CN=C(NN=C(C=Cc2ccc(OC(F)(F)F)cc2)C=Cc2ccc(OC(F)(F)F)cc2)NC1 | 170 to 172 °C |
| CN(Cc1ccccc1)C1CCN(c2ccc(N)cc2)CC1 | 138 °C |
| CC(C)(C#N)C1(c2ccc(Cl)cc2)CCC1 | 73 to 75 °C |
| CCCCCNc1ccc(OC2CCN(C(C)=O)CC2)cc1 | 69 to 71 °C |
| COC(=O)C=Cc1ccc(Cl)c([N+](=O)[O-])c1 | 107 °C |
| CC(Cc1ccc(CC2SC(=O)NC2=O)cc1)NCC(O)c1cc(Cl)c(N)c(Cl)c1 (stereo unspecified) | 195 to 201 °C |

| SMILES | melting point |
| --- | --- |
| CC(C)CCCC(C)C1CCC2C3CC=C4CC(N=[N+]=[N-])CCC4(C)C3CCC12C (stereo unspecified) | 84 to 86 °C |
| O=c1ccc2c(Br)nccc2[nH]1 | 272 to 274 °C |
| Cc1nn2ccccc2c1C(=O)C1=CNCCC1 | 207 to 208 °C |
| COc1ccc(Nc2ccnc(F)c2)cc1 | 150 °C |
| O=C1C=CC(Br)N(CCl)N1 (stereo unspecified) | 90 °C |
| CNC(=S)c1cnn(-c2ccccc2)c1C#N | 215 to 217 °C |
| COC(=O)c1cc(NC=O)ccn1 | 185 to 186 °C |
| CNc1nn(-c2ccccc2)cc1C=O | 83 to 84 °C |
| CC(CCCl)C(=O)Nc1scc(C(C)(C)C)c1C#N (stereo unspecified) | 115 to 116 °C |
| CC(C)Oc1cc(OC(C)C)c(C(=O)O)c(C(F)(F)F)n1 | 147 to 150 °C |
| O=C1COc2ccccc2CN1Cc1ccccc1 | 95 to 97 °C |
| C[C@H](Oc1c(I)c(C(=O)NC(CO)CO)c(I)c(C(=O)NC(CO)CO)c1I)C(N)=O | 110 °C |
| O=C(Nc1ccc(F)cc1)[C@H]1CCCN(C(=O)c2ccc(F)cc2)C1 | 163 to 164 °C |
| N#Cc1c(O)nc2onc(-c3ccccc3)c2c1N | 251 °C |
| O=C(NC[C@H]1CN(c2ccc3c(c2)CCCc2cnoc2-3)C(=O)O1)C(F)F | 145 to 180 °C |
| Nc1n[nH]cc1C(=O)c1ccco1 | 153 to 155 °C |
| COc1nsc(N2CCN(c3ccccn3)CC2)n1 | 144 to 145 °C |
| CN1C2CCC1[C@H](CO)[C@@H](c1cccs1)C2 (stereo partly specified) | 154 to 158 °C |
| O=C1CCN(c2ccncn2)CC1 | 61 to 65 °C |
| COc1ccc(NC(=O)CCCCC(=O)N(C)OC)cc1 | 89 to 90 °C |
| CC(c1c(F)ccc(F)c1Cl)N1CCNc2ncc(I)cc21 (stereo unspecified) | 166 °C |
| CCCCN1CCCC1Cc1cccc(NC(N)=O)c1 (stereo unspecified) | 80 to 83 °C |
| Nc1n[nH]c2cc(C(F)(F)F)ccc12 | 168 to 169 °C |

Other lines, results leading:

| melting point | SMILES |
| --- | --- |
| 197 to 199 °C | N#Cc1ccc(N(Cc2ccc(OS(N)(=O)=O)cc2)n2cnnc2)cc1-c1ccc(F)cc1 |
| 89.5 to 90.5 °C | COC(=O)CC(NCc1ccccc1)=C(C(=O)OC)C(=O)C(F)(F)F |
| 217 to 218 °C | CCCCOCCOc1ccc(-c2cc3c4c(c2)CCN4CCCC(C(=O)O)=C3)cc1 |
| 147 to 148 °C | CC(Cn1ncc2ccc3c(c21)NC(=O)CO3)NC(=O)OC(C)(C)C (stereo unspecified) |
| 253 to 255 °C | COc1cc2[nH]c(=O)c3ccccc3c2cc1OC |
| 196 to 197 °C | Cc1ccc(C(=O)NCCO)cc1-n1c(C)cc(OCc2ccccc2CNC(=O)Nc2cc(C(C)(C)C)nn2-c2ccc(Cl)c(O)c2)c(Cl)c1=O |
| 133 to 135 °C | CCOc1c(Cl)cc(C(C)(C)N2CC(C)=C(c3ccccc3)C2=O)cc1Cl |
| 263 to 265 °C | O=C1CCC(N2Cc3c(OCc4ccc(CN5CCOCC5)c(F)c4)cccc3C2=O)C(=O)N1 (stereo unspecified) |
| 113 to 116 °C | CCCCCCCCn1nnc(C(C(=O)Nc2c(OC)cc(OC)cc2OC)c2ccccc2)n1 (stereo unspecified) |
| 208 to 209 °C | c1ccc(-c2nc(SCCCSCCCSc3nc(-c4ccccc4)c(-c4ccccc4)[nH]3)[nH]c2-c2ccccc2)cc1 |
| 204 °C | COc1ccc(C(=O)C=Cc2ccccc2)cc1C=CC(=O)O |
| 135 to 137 °C | O=C(O)[C@H](Oc1c(Br)cc(-c2c3ccccc3c(Br)c3sc4ccccc4c23)cc1Br)c1ccccc1 |
| 172 to 173 °C | COc1ccccc1NS(=O)(=O)c1ccc([N+](=O)[O-])cc1[N+](=O)[O-] |
| 138 °C | O=C(NCCCO)C1=C(C(=O)Nc2ccc(Cl)cc2F)CCCC1 |
| 100 to 102 °C | COc1ccccc1C(=O)Nc1ccc(-n2nc(C(F)(F)F)cc2C(F)(F)F)cc1 |
| 83 to 84 °C | CC(C)(C)OC(=O)N1CCC(C(=O)NCCC(=O)OCc2ccccc2)C1 (stereo unspecified) |
| 159 °C | O=C(O)c1ccccc1Oc1ccc(Cl)cn1 |
| 144 °C | CCN(CC)C(=O)CCc1nc(-c2ccccc2)nc2ccc(OC)cc12 |
| 93 to 95 °C | CCCCCCCCCCCCc1nnn(C(C(=O)Nc2c(C(C)C)cccc2C(C)C)c2ccccc2)n1 (stereo unspecified) |
| 159 to 161 °C | Cc1noc(-c2cccc(CN3CCN(c4ccc(NC(=O)OC(C)(C)C)cc4)CC3)c2)n1 |
| 196 to 198 °C | CS(=O)(=O)OCCc1c2ccccc2n2c1[nH]c(=O)c1ccccc12 |
| 166 to 167 °C | COc1cccc(C2c3c(C)c(NC(=O)CC(C)(C)C)c(C)c(C)c3OC2(C)C)c1 (stereo unspecified) |
| 142 to 143 °C | COC(=O)CCC(C(=O)C=Cc1ccc(O)c(OC(F)(F)F)c1)C(=O)C=Cc1ccc(O)c(OC(F)(F)F)c1 (stereo unspecified) |
| 240 to 244 °C | CCNC(=O)Nc1ccc(-c2sc3c(c2CN(C)CCC(=O)N2CCCC2)c(=O)n(-c2ccccc2)c(=O)n3Cc2c(F)cccc2F)cc1 |
| 167 to 172 °C | CC(C)Cc1cccc(CCCn2c(=O)[nH]c3cc(Cl)cc(Cl)c3c2=O)c1 |
| 67.5 to 72 °C | CCCCCCCCCCn1c(C)cc(C)c(C(=O)O)c1=O |
| 267 to 271 °C | Cc1ncc2cc(-c3c(C)cccc3Cl)c(N)nc2n1 |

| melting point | SMILES |
| --- | --- |
| 270 to 272 °C | O=C(NC1CC1)c1ccc(N2CCN(Cc3cnc4c(c3)[nH]c(=O)n3cccc43)CC2)cc1 |
| 92 to 94 °C | O=C(O)C(F)c1cccc(OCc2ccccc2Cl)c1OCc1ccccc1Cl (stereo unspecified) |
| 276 to 279 °C | COc1ccc(C(=O)NC(=O)Nc2cccc3c2CC(=O)N3)cc1 |
| 260 to 265 °C | CN1CCN(c2cc(Cl)cc3c2c(=O)n(Cc2cccc(N)c2)c(=O)n3Cc2ccccc2)CC1 |
| > 320 °C | C[C@@H](Nc1ncnc2[nH]c(-c3ccc(CCl)cc3)cc12)c1ccccc1 |
| 142 to 146 °C | COCCOc1cccc(-c2ccc(C3CCN(S(=O)(=O)C(C)(C)C(=O)O)CC3)cc2C)n1 |
| 146 to 147 °C | CN(C)C1CCc2oc3ccc(NC(=O)c4ccncc4)cc3c2C1 (stereo unspecified) |
| 52 to 54 °C | CCCc1nn(C)c2c(=O)n(CCCOc3ccc(SC(C)(C)C(=O)OCC)cc3)c(CC)nc12 |
| > 350 °C | CC(C)(C)NC(=O)Nc1nc2nc(N)ncc2cc1-c1ccncc1 |
| 194 to 195 °C | COc1ccccc1OCC(O)CN1CCC(NC(=O)NC(=O)c2ccc(F)cc2)CC1 (stereo unspecified) |
| 147 to 149 °C | COCCN1CSC(=Cc2cc(C(C)(C)C)c(O)c(C(C)(C)C)c2)C1=O |
| 97 to 99 °C | Cn1ncnc1COc1nn2c(C3CC3)nncc2c1-c1ccccc1F |
| 209 to 210 °C | O=C(Nc1nnn(CC(F)(F)F)n1)C1c2ccccc2Oc2ccccc21 |
| 148 to 150 °C | CCN(C)C(=O)c1nn(-c2ccc(Cl)cc2)c(=O)c2c(N)scc12 |
| 197 to 198 °C | Cc1cc(-c2nc(C(F)(F)F)cn2-c2ccc(S(C)(=O)=O)c(F)c2)ccc1-c1cscn1 |
| 126 to 128 °C | CCC(COC)n1cc(Cl)nc(N2CCc3cc(OC)cc(Cl)c32)c1=O (stereo unspecified) |
| 267 to 270 °C | CCc1[nH]c(=O)[nH]c1-c1cc(C(C)(C)C)c(O)c(C(C)(C)C)c1 |
| 205 to 207 °C | N#Cc1cc(Cl)cc(Oc2ccc(CC(=O)Nc3ccc(S(N)(=O)=O)cc3Cl)cc2Br)c1 |
| 196 to 198 °C | CC(=O)Oc1ccc(-c2ccccc2)cc1C1(OC(C)=O)C(=O)c2ccccc2C1=O |
| 161 to 162 °C | Cc1nc(C(=O)COc2ccc(CC3SC(=O)NC3=O)cc2)c(C)o1 (stereo unspecified) |
| 253 to 255 °C | O=[N+]([O-])c1ccc2nc3c4ccccc4c4ccccc4c3nc2c1 |
| 101 to 102 °C | Cc1cccc(C(Oc2ccc3oc(CCCO)cc3c2)c2cocn2)c1 (stereo unspecified) |
| 193 to 196 °C | COc1ccc(C(=O)Nc2cccnc2)cc1N |
| 133 to 134 °C | CCc1cccc2c(S(=O)(=O)c3ccc(C)cc3)cnnc12 |
| 160 to 161 °C | CN1CCN(C(=O)Nc2ccccc2NC(=O)c2cc(C(C)(C)C)c(O)c(C(C)(C)C)c2)CC1 |
| 223 to 225 °C | O=CC(=Cc1ccc(OC(=O)c2ccc(Br)cc2)cc1)C(C=O)=Cc1ccc(OC(=O)c2ccc(Br)cc2)cc1 |
| 184 to 185 °C | O=C(CCl)Nc1ccc2c(c1NC(=O)Cc1ccccc1)C(=O)c1ccccc1C2=O |
